Results reported in US20040208866A1, “Methods of regulating body weight” (priority 2002, published 2004).

Key:
Balb C male mice = experiment: Binding studies of FITC-labelled zsig33 peptides in situ after tail vein injection; type: in vivo; conditions: FITC-labelled peptide, 0.5 mg per mouse by tail vein, 15 minutes circulation, fluorescent microscopy at 495 nm
Experimental: Ten week old Balb C male mice were anesthetized via intramuscular injection and tested for binding of zsig33 peptides in vivo.
Two peptides were tested: the first peptide, zsig33-1, (See Example 4) consisted of residues 24 to 37 of SEQ ID NO:2, and the second peptide, zsig33-2, consisted of residues 24 to 41 of SEQ ID NO:2. A single glycine was used as a negative control. Additionally, a “scrambled” negative control consisting of residues the first peptide which had been rearranged (SEQ ID NO:15) was also tested. The peptides and controls were coupled to fluorescein isothiocyantate (FITC, Molecular Probes, Eugene, Oreg.) in the following manner: The peptides, glycine control and FITC were dissolved in 0.1 M sodium bicarbonate at pH 9.0 to a concentration of 2.0 mg/ml for the peptides and glycine control and 5 mg/ml for FITC, avoiding exposure of the FITC to strong light. […] The buffer was changed daily and unbound FITC in the post-dialyzed buffer was measured by HPLC. […] Peptide- or glycine-bound FITC was determined by measuring the absorbance of the dialyzed FITC-bound material at 498 nm and dividing by the extinction coefficient of fluorescein, […]. The molar ratio of fluorescein to peptide (mole FITC/mole peptide) was then determined. […]

[1] = tested on: antral portion of the stomach; experiment: Gastrointestinal contractility: distance between transducing crystals on the antral stomach; type: in vivo, Sprague-Dawley rats
Description: Two male Sprague-Dawley rats, approximately 12 weeks old (Harlan, Indianapolis, Ind.) were anesthetized with urethane and their stomachs were exposed through a small abdominal incision. Two 2.4 mm transducing crystals (Sonometrics, Ontario, Canada) were placed on the antral portion of the stomach such that circular contractions could be monitored as a change in the distance between the two crystals. The crystals were attached with VETBOND TISSUE ADHESIVE (3M, St. Paul, Minn.). […] The amplitude of the NE-induced decrease was approximately 50% of the acetylcholine-induced increase in distance. Both responses were transient. A negative control of […] of phosphate buffer solution (PBS) applied topically between the crystals had no effect. A 14 amino acid zsig33 peptide (zsig33-1, as shown in Example 4) was dissolved in PBS and […] was applied topically for a final concentration of 1 μg, 10 μg or 100 μg.

ob/ob mice [2] = experiment: Glucose absorption after oral glucose challenge; type: in vivo; conditions: 100 μg by oral gavage 30 minutes prior to oral glucose challenge, female ob/ob mice
Experimental: Eight female ob/ob mice, approximately 6 weeks old (Jackson Labs, Bar Harbor, Me.) were adapted to a 4 hour daily feeding schedule for two weeks. After two weeks on the feeding schedule, the mice were given 100 μg of a zsig33 peptide (zsig33-1, as shown in Example 4) in 100 μl sterile 0.1% BSA by oral gavage, immediately after their eating period (post-prandially). Thirty minutes later, the mice were challenged orally with a 0.5 ml volume of 25% glucose. Retroorbital bleeds were done to determine serum glucose levels. Blood was drawn prior to zsig33 dosing, prior to oral glucose challenge, and at 1, 2, 4, and 20 hours following the glucose challenge.

[3] = tested on: stomachs of fasted male Sprague-Dawley rats; experiment: Gastric emptying: transit of phenol red through the stomach; type: in vivo; conditions: 1 μg applied topically to the stomach 5 minutes after gavage, read 30 minutes after the gavage
Experimental: The effect of topically applied zsig33 peptide (amino acid 24 to 37 of SEQ ID NO: 2) on the transit of phenol red through the stomachs of fasted male Sprague-Dawley rats (Harlan, Indianapolis, Ind.) was evaluated. The rats (6 animals, 8 weeks old) were fasted 24 hrs prior to being anesthetized with urethane (0.5 ml/100 grams of 25% solution). After anesthetizing, the animals were orally gavaged with 1 ml of Phenol Red solution (50 μg/ml in 2% methylcellulose solution).
The stomach of each animal was exposed through a small abdominal incision and either 1 μg zsig33 peptide or a 14 amino acid control of a scrambled sequence peptide was applied topically to the stomach five minutes following the gavage. The amount of Phenol Red remaining in the stomach was determined by measuring optical density of the extracted stomach contents 30 minutes after the gavage.

ob/ob mice [4] = experiment: Body weight, food intake and glucose clearance, 14-day oral dosing; type: in vivo; conditions: 1 μg/mouse orally twice daily for fourteen days, versus scrambled peptide
Experimental: Sixteen female ob/ob mice, 8 weeks old, (Jackson Labs, Bar Harbor, Me.) were adapted to a special 4 hour daily feeding schedule for two weeks. The were fed ad libitum from 7:30-11:30 am daily. After two weeks on the feeding schedule, the mice were divided into two groups of 8. One group was given 1.0 μg/mouse of zsig33-1 (14 amino acid peptide) and the other vehicle (a 14 amino acid scrambled sequence peptide) in […] sterile 0.1% BSQA by oral gavage just prior to receiving food, and at the end of the 4 hour feeding period. The mice were […] twice daily for fourteen days, during which time food intake and body weight was measured daily. On day 14, immediately after the second oral gavage of the zsig33-1 peptide, the mice were challenged orally with an 0.5 ml volume of 25% glucose. Retro-orbital bleeds were done to determine serum glucose levels immediately prior to administration of the zsig33-1 peptide or vehicle ([…].), and also at 0, 1, 2, and 4 hours following the glucose challenge.

Compound | fluorescence in duodenum, jejunum and kidney compared to the glycine and scrambled controls (Balb C male mice) | amplitude of the NE-induced decrease relative to the acetylcholine-induced increase in distance ([1]; 10 ml of 1 mM applied topically) | change in distance between the two crystals ([1]; 10 ml of 1 mM applied topically to the stomach, anesthetized rats) | change in crystal distance ([1]; 1 μg peptide in PBS applied topically) | rate and amplitude of the contractions ([1]; 10 μg and 100 μg applied topically, compared with 1 μg) | post-prandial glucose absorption (serum glucose) (ob/ob mice [2]) | reduction of the amount of Phenol Red remaining in the stomach compared to a scrambled peptide [3] | daily body weight (ob/ob mice [4]) | daily food intake (ob/ob mice [4])
zsig33-2: peptide consisting of residues 24 to 41 of SEQ ID NO:2 (GSSFLSPEHQRVQQRKES; listed as Homo sapiens) | increased fluorescence in duodenum, jejunum and in the collecting ducts and convoluted tubules of the kidney |  |  |  |  |  |  |  | 
NC[C@H](O)c1ccc(O)c(O)c1 [norepinephrine, reference compound] |  | approximately 50% | reduction in the distance between the two crystals |  |  |  |  |  | 
zsig33-1: 14 amino acid peptide corresponding to residue 24 (Gly) to residue 37 (Gln) of SEQ ID NO:2 (GSSFLSPEHQRVQQ; listed as Homo sapiens) | increased fluorescence in duodenum, jejunum and in the collecting ducts and convoluted tubules of the kidney |  |  | sustained, rhythmic increase and decrease in crystal distance | enhanced responses in both rate and amplitude | enhanced post-prandial glucose absorption | approximately 25% | no affect | no affect
